In brackets after ≈: the same amount, converted by molar mass.
Legend:
Type in all cases: functional, cell-based
HCT-116 [1] = experiment: Cytotoxicity against human HCT-116 cells
SR = experiment: Cytotoxicity against human SR cells
RPMI-8226 = experiment: Cytotoxicity against human RPMI-8226 cells
SMMC-7721 = experiment: Cytotoxicity against human SMMC-7721 cells measured after 48 hrs by MTT assay; settings: SMMC-7721, 48 h
HepG2 [2] = experiment: Cytotoxicity against human HepG2 cells measured after 48 hrs by MTT assay; settings: HepG2, 48 h
EJ = experiment: Cytotoxicity against human EJ cells measured after 48 hrs by MTT assay
HCT-116 [3] = experiment: Cytotoxicity against human HCT-116 cells measured after 48 hrs by MTT assay; settings: HCT-116, 48 h
NCI-H460 [4] = experiment: Cytotoxicity against human NCI-H460 cells measured after 48 hrs by MTT assay; settings: NCI-H460, 48 h
A549 [5] = experiment: Cytotoxicity against human A549 cells by MTT assay
Breast carcinoma cell = experiment: Cytotoxicity against human Breast cancer cell line measured after 72 hrs by MTT assay
[6] = Cytotoxicity against human Pancreatic cancer cell measured after 72 hrs by MTT assay
A549 [7] = experiment: Cytotoxicity against human A549 cells
MCF7 = experiment: Cytotoxicity against human MCF7 cells
Malme-3M = experiment: Cytotoxicity against human Malme-3M cells
OVCAR-3 = experiment: Cytotoxicity against human OVCAR-3 cells
PC-3 = experiment: Antiproliferative activity against human PC-3 cells
NCI-H460 [8] = experiment: Antiproliferative activity against human NCI-H460 cells assessed as cell viability incubated for 24 hrs by MTT assay; settings: NCI-H460, 24 h
NCI-H460 [9] = experiment: Antiproliferative activity against human NCI-H460 cells assessed as cell viability incubated for 48 hrs by MTT assay; settings: NCI-H460, 48 h
T47D [10] = experiment: Antiproliferative activity against human T47D cells assessed as cell viability incubated for 24 hrs by MTT assay
T47D [11] = experiment: Antiproliferative activity against human T47D cells assessed as cell viability incubated for 48 hrs by MTT assay
HCT-116 [12] = experiment: Antiproliferative activity against human HCT-116 cells assessed as cell viability incubated for 24 hrs by MTT assay; settings: HCT-116, 24 h
CNE = experiment: Cytotoxicity against human CNE-1 cells incubated for 72 hrs by MTT assay
CNE-2 = experiment: Cytotoxicity against human CNE-2 cells incubated for 72 hrs by MTT assay; settings: CNE-2, 72 h
HONE1 cell line = experiment: Cytotoxicity against human HONE1 cell line incubated for 72 hrs by MTT assay; settings: HONE1, 72 h
SUNE1 = experiment: Cytotoxicity against human SUNE1 cells incubated for 72 hrs by MTT assay; settings: SUNE1, 72 h
HepG2 [13] = experiment: Cytotoxicity against human HepG2 cells incubated for 72 hrs by MTT assay; settings: HepG2, 72 h
[14] = Cytotoxicity against human QGY-7701 cells incubated for 72 hrs by MTT assay; settings: QGY7701, 72 h
A549 [15] = experiment: Antiproliferative activity against human A549 cells incubated for 72 hrs by MTT assay; settings: A549, 72 h
MDA-MB-231 = experiment: Antiproliferative activity against human MDA-MB-231 cells incubated for 72 hrs by MTT assay; settings: MDA-MB-231, 72 h
PANC-1 = experiment: Antiproliferative activity against human PANC-1 cells incubated for 72 hrs by MTT assay; settings: PANC-1, 72 h
T98G = experiment: Antiproliferative activity against human T98G cells incubated for 72 hrs by MTT assay
Hs 683 = experiment: Antiproliferative activity against human Hs 683 cells incubated for 72 hrs by MTT assay; settings: Hs 683, 72 h
HeLa = experiment: Cytotoxicity against human HeLa cells
Hep 3B2 = experiment: Cytotoxicity against human Hep3B cells
KB = experiment: Cytotoxicity against human KB cells
HL-60 = experiment: Cytotoxicity against human HL-60 cells; settings: hl-60
[16] = Cytotoxicity against human BGC cells
CCRF-CEM = experiment: Cytotoxicity against human drug sensitive CCRF-CEM cells assessed as fluorescence incubated for 72 hrs by resazurin reduction assay
Keratinocyte = experiment: Cytotoxicity against guinea pig ear keratinocytes using [3H]thymidine by liquid scintillation counting analysis; settings: Cavia porcellus
ADR5000 cell line = experiment: Cytotoxicity against human multidrug-resistant CEM/ADR5000 cells assessed as fluorescence incubated for 72 hrs by resazurin reduction assay; settings: ADR5000, 72 h
HCC1395 = experiment: Antiproliferative activity against human HCC1395 cells incubated for 48 hrs by MTT assay; settings: HCC1395, 48 h
DU-145 = experiment: Antiproliferative activity against human DU-145 cells incubated for 48 hrs by MTT assay; settings: DU-145, 48 h
K562 = experiment: Cytotoxicity against human K562 cells
LoVo = experiment: Cytotoxicity against human LoVo cells

With O=C(Cn1c2ccccc2c2ccncc21)N/N=C/c1cccc2ccccc12 the IC50 (HCT-116 [1]) was 3.5 µM, the IC50 (SR) was 6.3 µM and the IC50 (RPMI-8226) was 7.8 µM.
Work on Cc1nc(C(=O)NCCCCNC(=O)c2ccccc2O)cc2c1[nH]c1ccccc12 yielded an IC50 (SMMC-7721) of 6.97 µM, an IC50 (HepG2 [2]) of 6.97 µM and an IC50 (EJ) of 6.97 µM. It also gave an IC50 (HCT-116 [3]) of 6.97 µM and an IC50 (NCI-H460 [4]) of 6.97 µM.
In the case of C[C@@H](O)CCCCC(=O)c1nccc2c1[nH]c1ccccc12, the IC50 (A549 [5]) is reported as 1.7 µM.
Work on COc1ccc2[nH]c3c(-c4cccc5ccccc45)nccc3c2c1 yielded an IC50 (Breast carcinoma cell) of 0.39 µM and an IC50 [6] of 0.38 µM.
O=C1c2ccccc2-[n+]2ccc3c([nH]c4ccccc43)c21 [FASCAPLYSIN] showed an IC50 (A549 [7]) of 0.38 µg/mL, an IC50 (MCF7) of 0.14 µg/mL and an IC50 (Malme-3M) of 0.03 µg/mL. The IC50 (OVCAR-3) was 0.16 µg/mL.
For COc1c[n+](Cc2ccccc2)c2ccc(=O)n3c4ccccc4c1c23, the IC50 (PC-3) was 8 µM.
With Cc1nccc2c3ccccc3n(CCCCn3c4ccccc4c4ccnc(C)c43)c12 the IC50 (NCI-H460 [8]) was 10.9 µM, the IC50 (NCI-H460 [9]) was 9.58 µM and the IC50 (T47D [10]) was 9.88 µM. The IC50 (T47D [11]) was 8.22 µM and the IC50 (HCT-116 [12]) was 5.09 µM.
O=C(c1nccc2c1[nH]c1ccccc12)[C@@H](O)CCCO gave an IC50 (CNE) of 16.3 µM, an IC50 (CNE-2) of 20.6 µM and an IC50 (HONE1 cell line) of 20.1 µM. For the same compound, the IC50 (SUNE1) was 45.3 µM, the IC50 (HepG2 [13]) was 50.9 µM and the IC50 [14] was 29 µM.
With CCCn1c2cc(OCCC(C)C)ccc2c2cc[n+](Cc3ccccn3)c(C)c21 the IC50 (A549 [15]) was 0.2 µM, the IC50 (MDA-MB-231) was 0.2 µM and the IC50 (PANC-1) was 0.2 µM. It also gave an IC50 (T98G) of 0.2 µM and an IC50 (Hs 683) of 0.2 µM.
CCCCCCCCCCCCCCCCCCCCCCCC(=O)N1CCc2c([nH]c3ccc(O)cc23)[C@H]1Cc1ccc(O)cc1 gave an IC50 (MCF7) of under 2 µM, an IC50 (HeLa) of under 2 µM and an IC50 (Hep 3B2) of under 2 µM.
NCCCCNC(=O)c1cc2c(cn1)[nH]c1ccccc12 gave an IC50 (KB; kb) of 8.6 µM, an IC50 (HL-60) of 8.6 µM and an IC50 [16] of 8.6 µM.
O=c1ccc2nccc3c4ccccc4n1c23 [CANTHIN-6-ONE] gave an IC50 (CCRF-CEM) of 15.8 µM, an IC50 (Keratinocyte) of 1.11 µg/mL (≈ 5.04 µM) and an IC50 (ADR5000 cell line) of 10.5 µM. It also gave an IC50 (HCC1395) of 8.12 µg/mL (≈ 36.9 µM) and an IC50 (DU-145) of 9.43 µg/mL (≈ 42.8 µM).
With CC[C@H](C)[C@H](NC(=O)[C@H](Cc1c[nH]c2ccccc12)NC(=O)[C@H](Cc1c[nH]c2ccccc12)NC(=O)c1cc2c([nH]c3ccccc32)c(-c2ccc(O)c(OC)c2)n1)C(=O)OCc1ccccc1 the IC50 (K562) was 12 µM.
In the case of Oc1cccc2c1[nH]c1c(C3=C[C@@]4(O)CC/C=C\CCCCN5CC[C@@H]3[C@]3(C[C@@H]6/C=C\CCCCN6[C@H]34)C5)nccc12, the IC50 (KB; Homo sapiens, KB, read-out: IC50) is reported as 0.3 µg/mL and the IC50 (LoVo) is reported as 0.26 µg/mL (≈ 0.46 µM).
